From patent US8541576B2, “Substituted pyrazolo-quinazoline derivatives as kinase inhibitors” (Nerviano Medical Sciences SRL, priority 2010, dated 2013)

What was measured:
Full-length human PIM-1 = biological target: T1, Full-length human PIM-1 (Homo sapiens, UniProt P11309); assay: Biochemical assay for inhibitors of PIM-1 kinase activity (trans-phosphorylation, Dowex resin, 33P-ATP); conditions: ATP 200 μM, enzyme 1 nM, Aktide 25 μM
T1 construct: Full-length human PIM-1 was expressed and purified; made in house
T1 sequence (P11309 whole entry): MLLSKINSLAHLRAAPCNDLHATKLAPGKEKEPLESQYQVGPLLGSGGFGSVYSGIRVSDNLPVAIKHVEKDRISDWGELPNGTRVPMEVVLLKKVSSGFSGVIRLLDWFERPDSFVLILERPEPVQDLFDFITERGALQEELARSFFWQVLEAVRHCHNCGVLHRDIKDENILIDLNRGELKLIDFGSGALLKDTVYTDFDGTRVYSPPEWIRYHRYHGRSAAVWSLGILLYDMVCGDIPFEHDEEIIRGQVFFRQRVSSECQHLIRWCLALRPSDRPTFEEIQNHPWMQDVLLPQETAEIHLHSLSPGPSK
Protocol: Biochemical assay for inhibitors of PIM-1 kinase activity
The inhibitory activity of putative kinase inhibitors and the potency of selected compounds were determined using a trans-phosphorylation assay.
Specific peptide or protein substrates are trans-phosphorylated by their specific ser-thr or tyr kinase in the presence of ATP traced with ^33P-γ-ATP, and in the presence of their own optimal buffer and cofactors.
At the end of the phosphorylation reaction, more than 98% unlabeled ATP and radioactive ATP is captured by an excess of the ion exchange Dowex® resin; the resin then settles down to the bottom of the reaction plate by gravity.
Supernatant is subsequently withdrawn and transferred into a counting plate, then evaluated by β-counting.
The buffer for PIM-1 assay was composed of HEPES 50 mM, at pH 7.5, with 10 mM MgCl2, 1 mM DTT, 3 μM NaVO3, and 0.2 mg/ml BSA
Full-length human PIM-1 was expressed and purified as described in Bullock A N, et al., J. Biol. Chem. 2005, 280, 41675-82.
1.7 μM PIM1 was incubated 1 hour RT at 28° C. in the presence of 125 μM ATP
ATP concentration: 200 μM
Enzyme concentration: 1 nM
Substrate concentration Aktide (Chemical Abstract Service Registry Number 324029-01-8): 25 μM
The test mix consisted of:
1) 3× Enzyme mix (done in Kinase Buffer 3×), 5 μL/well
2) 3× substrate and ATP mix (done in ddH2O), together with ^33P-γ-ATP, 5 μL/well
3) 3× test compounds (diluted into ddH2O—3% DMSO)-5 μL/well
For IC50 determination, test compounds are received as a 1 mM solution in 100% DMSO and distributed into 96-well plates: compounds are then plated into the first column of a new 96-well plate (A1 to G1), 100 μl/well.
An automated station (Biomek FX®, Beckman) is used for serial dilutions, producing 1:3 dilutions in 100% DMSO, from line A1 to A10, for all the compounds in the column. Moreover, 4-5 copies of daughter plates are prepared by reformatting 5 μL of this first set of 100% DMSO dilution plates into 384-deep well plates: one copy of these serial dilution plates with the test compounds is thawed on the day of study, reconstituted at the working concentration (3-fold the final concentration) with 162 μL/well of water and used for IC50 determination assays. In a standard experiment, the highest concentration (3×) of compounds is typically 30 μM, while the lowest one is typically 1.5 nM.
Each 384-well plate generates at least one curve of the standard inhibitor staurosporine and reference wells (total enzyme activity vs. no enzymatic activity) for evaluation of Z′ and signal to background (S/B) ratio.
384-well plates, V bottom (test plates) are prepared with 5 μl of compound diluted as previously described (3×) and then placed onto a PlateTrak® 12 robotized station (Perkin Elmer; the robot has one 384-tip pipetting head for assay start, plus one 96-tip head for dispensing resin) together with one reservoir for Enzyme mix (3×) and one for ATP mix (3×).
Data are analyzed by an internally customized version of the “Assay Explorer®” SW package, which provides sigmoidal fitting of the ten-dilution curves for IC50 determination in secondary assay/hit confirmation routines.

BaF3 PIM1 cells = assay: In vitro cell proliferation potency assay, BaF3 transfected with PIM1 (Cell Titer Glo); type: cell-based, murine; conditions: Mus musculus, incubated overnight, read-out: Prolif BaF3 PIM1 (EC50)
From the text: (§1) BaF3 is a murine interleukin-3 dependent pro-B cell line, useful as a model system for assessing both the potency and downstream signaling of kinase oncogenes (“Ba/F3 cells and their use in kinase drug discovery”, Warmuth, M, et al, (January 2007) Current Opinion in Oncology, Vol 19(1):55-60). BaF3 parental line was obtained from the DSMZ repository. BaF3 lines transfected with PIM1 or PIM2 were generated. Mouse IL-3 was purchased from R&D Systems. G418 was purchased from Clontech. Media for BaF3 parental line contained RPMI, 10% FBS, 2 mM L-Glutamine, 2 ng/mL mIL-3. Media for BaF3 PIM1 & 2 lines contained RPMI, 10% FBS, 2 mM L-Glutamine, […]. Media for MM1.S (multiple myeloma cells) line contained RPMI, 10% FBS, 2 mM L-Glutamine.
(§2) Parental cells, BaF3 PIM1 cells, BaF3 PIM2 cells, and MM1.S (multiple myeloma) cells were seeded at 2 k/well, 5 k/well, 5 k/well, and 10 k/well respectively, in a 384-well plate, at 45 μL/well. Test compound was added at 5 μL/well. BaF3 cells (parental and transfected) were incubated overnight, while MM1.S cells were incubated for 72 hours at 37° C., 5% CO2. CELL TITER GLO® Reagent (Promega) was added at 50 μL/well, the plates were incubated for 30 minutes, and their luminescence read on an HT Analyst. IC50/EC50 values for the test compound were calculated.

BaF3 parental line = assay: In vitro cell proliferation potency assay, BaF3 parental line with IL-3 (Cell Titer Glo); type: cell-based, murine; conditions: Mus musculus; BaF3 parental cells with mIL-3, incubated overnight; read-out: Prolif BaF3 IL3 (EC50)
From the text: as §1, §2

[1] = system: MV-4-11 (biphenotypic B myelomonocytic leukemia) cells; assay: In vitro cell proliferation assay (CellTiter-Glo); type: cell-based; conditions: Homo sapiens, MV4-11, antiproliferative activity, 72 hours
Protocol: In Vitro Cell Proliferation Assay:
MV-4-11 (biphenotypic B myelomonocytic leukemia) cells (1250 cells/well) were seeded in white 384 well-plates in complete medium (RPMI 1640 or EMEM plus 10% Fetal bovine serum) and treated with compounds dissolved in 0.1% DMSO, 24 h after seeding. The cells were incubated at 37° C. and 5% CO2 and after 72 hours the plates were processed using CellTiter-Glo® assay (Promega) following the manufacturer's instruction. CellTiter-Glo® is a homogenous method based on the quantification of the ATP present, an indicator of metabolically active cells. ATP is quantified using a system based on luciferase and D-luciferin resulting into light generation. The luminescent signal is proportional to the number of cells present in culture.
Briefly 25 μl/well reagent solution was added to each wells and after 5 minutes shacking microplates were red by Envision® (PerkinElmer) luminometer. The luminescent signal was proportional to the number of cells present in culture.
Inhibitory activity was evaluated comparing treated versus control data using Assay Explorer (MDL) program. IC50 was calculated using sigmoidal interpolation curve.

Full-length human PIM-2 = biological target: T2, Full-length human PIM-2 (Homo sapiens, UniProt Q9P1W9); assay: PIM-2 kinase inhibition assay: Dowex technique; type: biochemical; conditions: ATP 4 μM, enzyme 1.5 nM, Aktide 5 μM
T2 construct: Full-length human PIM-2 was expressed and purified; made in house
T2 sequence (Q9P1W9 whole entry): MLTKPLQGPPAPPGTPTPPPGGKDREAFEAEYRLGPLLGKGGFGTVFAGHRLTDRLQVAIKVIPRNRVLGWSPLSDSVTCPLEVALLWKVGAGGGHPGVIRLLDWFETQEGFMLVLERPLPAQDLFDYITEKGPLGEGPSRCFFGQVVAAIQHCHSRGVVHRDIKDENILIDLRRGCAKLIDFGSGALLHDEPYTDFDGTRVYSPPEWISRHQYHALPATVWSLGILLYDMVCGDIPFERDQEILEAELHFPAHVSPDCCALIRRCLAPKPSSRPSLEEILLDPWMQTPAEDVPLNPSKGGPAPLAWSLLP
Protocol: Method for PIM-2 Kinase Inhibition Assay: Dowex Technique
The buffer for PIM-2 assay was composed of HEPES 50 mM, at pH 7.5, with 1 mM MgCl2, 1 mM DTT, 3 μM Na3VO4, and 0.2 mg/ml BSA
Full-length human PIM-2 was expressed and purified as described in Fedorov O, et al. (2007) PNAS 104, 51, 20523-28.
Assay Conditions (Final Concentrations):
Enzyme concentration=1.5 nM
Aktide substrate (Chemical Abstract Service Registry Number 324029-01-8)=5 μM
See above: same procedure as described for PIM-1.

[2] = system: phosphorylation of BAD at Ser112 by PIM kinases; assay: Western blot of phospho-BAD (Ser112) in MV-4-11 cells; type: cell-based, human; conditions: different concentrations, 3 hours, compared to DMSO treated cells, FIG. 2
Protocol: To further establish that the cytotoxicity of the compounds of the present invention resulted from the inhibition of PIM kinases, we examined the phosphorylation of the pro-apoptotic protein BAD by PIM kinases in the presence or absence of PIM inhibitors in MV-4-11 leukemia cell lines.
MV-4-11 cells were plated in 6 well plates at 1.5×10^6 cells/ml and treated with different concentrations of PIM-inhibitors for 3 hours. Cells were harvested, washed with PBS buffer and lysed with lysis buffer (2% SDS, 100 mM Tris ph 7.5, 1:100 Phosphatase Inhibitor Cocktail 1 (SIGMA) and 1:100 Phosphatase Inhibitor Cocktail 2(SIGMA) and Complete Protease Inhibitor (Roche). The protein concentration in the lysates was quantified using the BCA Protein Assay Kit (Pierce). Equal amounts of protein were loaded onto 4-12% gradient Tri-glycine gel for SDS-PAGE analysis. Then the proteins were transferred to PVDF membranes (Millipore) for Western Blotting. Membranes were probed with the antibody for phospho-Bad (Ser112) (Cell Signaling Technologies).

Compound | IC50 (Full-length human PIM-1) [nM] | EC50 (BaF3 PIM1 cells) [nM] | EC50 (BaF3 parental line) [nM] | IC50 [1] [nM] | IC50 (Full-length human PIM-2) [nM] | levels of pBAD (s112) by western blot [2]
CN1CCN(c2ccc(Oc3ncc4ccc5c(C(N)=O)nn(C(C)(C)C)c5c4n3)cc2)CC1 [Compound 51, 1-tert-butyl-8-[4-(4-methylpiperazin-1-yl)phenoxy]-1H-pyrazolo[4,3-h]quinazoline-3-carboxamide] | 4 | 210 | 9300 | 192 | 15 | 
CSc1ncc2ccc3c(C(N)=O)nn(C(C)(C)C)c3c2n1 [Compound 85, 1-tert-butyl-8-(methylsulfanyl)-1H-pyrazolo[4,3-h]quinazoline-3-carboxamide] | 1 | 310 | 13000 | 103 | 2 | dose dependent reduction
CSc1ncc2ccc3c(C(N)=O)nn(C4CCC(N)CC4)c3c2n1 (centres unmarked) [Compound 93, 1-(4-aminocyclohexyl)-8-(methylsulfanyl)-1H-pyrazolo[4,3-h]quinazoline-3-carboxamide] | 1 | 44 | 7900 | 448 | 1 | 
CSc1ncc2ccc3c(C(N)=O)nn([C@@H]4C[C@H]5CC[C@@H](C4)N5)c3c2n1 [Compound 99, 1-[(3-exo)-8-azabicyclo[3.2.1]oct-3-yl]-8-(methylsulfanyl)-1H-pyrazolo[4,3-h]quinazoline-3-carboxamide] | 16 |  |  | 102 | 33 | 
CSc1ncc2ccc3c(C(N)=O)nn(C(C)CCN)c3c2n1 (centres unmarked) [Compound 102, 1-(4-aminobutan-2-yl)-8-(methylsulfanyl)-1H-pyrazolo[4,3-h]quinazoline-3-carboxamide] | 1 |  |  | 35 | 1 | 
CSc1ncc2ccc3c(C(N)=O)nn(C4CN5CCC4CC5)c3c2n1 (centres unmarked) [Compound 103, 1-(1-azabicyclo[2.2.2]oct-3-yl)-8-(methylsulfanyl)-1H-pyrazolo[4,3-h]quinazoline-3-carboxamide] | 15 |  |  | 221 | 28 | 
CSc1ncc2ccc3c(C(N)=O)nn(C4CCOCC4)c3c2n1 [Compound 104, 8-(methylsulfanyl)-1-(tetrahydro-2H-pyran-4-yl)-1H-pyrazolo[4,3-h]quinazoline-3-carboxamide] | 14 |  |  | 185 | 35 | 
CSc1ncc2ccc3c(C(N)=O)nn([C@H]4C[C@H](CO)C4)c3c2n1 [Compound 105, 1-[trans-3-(hydroxymethyl)cyclobutyl]-8-(methylsulfanyl)-1H-pyrazolo[4,3-h]quinazoline-3-carboxamide] | 3 |  |  | 16.8 | 14 | 
CSc1ncc2ccc3c(C(N)=O)nn([C@H]4C[C@@H](CO)C4)c3c2n1 [Compound 106, 1-[cis-3-(hydroxymethyl)cyclobutyl]-8-(methylsulfanyl)-1H-pyrazolo[4,3-h]quinazoline-3-carboxamide] | 3 |  |  | 21 | 13 | 
NC(=O)c1nn(C2CCC(N)CC2)c2c1ccc1cnc(-c3ccsc3)nc12 (centres unmarked) [Compound 112, 1-(4-aminocyclohexyl)-8-(thiophen-3-yl)-1H-pyrazolo[4,3-h]quinazoline-3-carboxamide] | 300 | 1300 | 2000 |  | 43 | 
